Values of other authors, collected in patent US8905760B2, “Methods and systems for progressively treating and controlling oral periopathogens causing systemic inflammations” (priority 2008, dated 2014).
Structures can show the parent of a compound that is named as a salt.

Details: IPT group: standard periodontal therapy with adjunctive local delivery of minocycline-HCl (Arestin); N=20; P<0.0001, t test

Compound: CN(C)c1ccc(O)c2c1C[C@H]1C[C@H]3[C@H](N(C)C)C(O)=C(C(N)=O)C(=O)[C@@]3(O)C(O)=C1C2=O [minocycline-HCl]
- reduction of periodontal lesions after therapy (mean difference): 60±23
